Data published in patent publication US20260317324A1, “BIFUNCTIONAL COMPOUNDS FOR DEGRADING BRAF VIA UBIQUITIN PROTEOSOME PATHWAY” (Nurix Therapeutics, Inc., priority 2023, published 2026).

How the values were obtained:
Format in all cases: cell-based
[1] = target: T1, BRAF G469A (Homo sapiens, UniProt P15056, G469A); assay: BRAF HiBiT degradation assay, C-terminal HiBiT-tagged BRAF G469A overexpressed in HCT-116 BRAF−/− cells (clone 34), Nano-Glo HiBiT Lytic assay
T1 construct: Horizon Discovery (HCT-116 BRAF−/− cells); host or cells: HCT-116 BRAF−/− cells, clone 34, lentiviral transduction
Outline: (§1)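 Degradation was read by Nano-Glo HiBiT lytic luminescence, normalised to DMSO-treated tagged cells with wildtype HCT-116 as background. Test cells were lentiviral clones of HCT-116 BRAF−/− carrying HiBiT-tagged mutants in RPMI/10% FBS, given compound at 0.01 nM–1 μM in duplicate. Outputs are the curve-fitted concentration giving 50% degradation and the maximal observed degradation.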

[2] = target: T2, BRAF D594G (Homo sapiens, UniProt P15056, D594G); assay: BRAF HiBiT degradation assay, C-terminal HiBiT-tagged BRAF D594G overexpressed in HCT-116 BRAF−/− cells (clone 63), Nano-Glo HiBiT Lytic assay
T2 construct: Horizon Discovery (HCT-116 BRAF−/− cells); host or cells: HCT-116 BRAF−/− cells, clone 63, lentiviral transduction
Outline: as §1

[3] = target: T3, BRAF V600E (Homo sapiens, UniProt P15056, V600E); assay: BRAF HiBiT degradation assay, C-terminal HiBiT-tagged BRAF V600E A375 cells (clone 1F10), Nano-Glo HiBiT Lytic assay; conditions: for Dmax: A-375
T3 construct: endogenous C-terminal HiBiT fusion tag on BRAF V600E allele; endogenous in cells; host or cells: A375 clone 1F10 (CRISPR-Cas9 knock-in of the HiBiT tag; parental A375 from ATCC)
Outline: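 Luminescence from the Nano-Glo HiBiT lytic read-out gave % BRAF V600E remaining versus DMSO-treated tagged cells, with untagged A375 as background. Clone 1F10 cells (10,000/well, 24 h pre-culture) received compound at 1 μM–0.01 nM in half-log steps, 0.2% DMSO; curve fits gave DC50 at Y=50, plus observed Dmax.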

[4] = target: T4, BRAF G466V (Homo sapiens, UniProt P15056, G466V); assay: BRAF HiBiT degradation assay, C-terminal HiBiT-tagged BRAF G466V overexpressed in HCT-116 BRAF−/− cells (clone 8), Nano-Glo HiBiT Lytic assay
T4 construct: Horizon Discovery (HCT-116 BRAF−/− cells); host or cells: HCT-116 BRAF−/− cells, clone 8, lentiviral transduction
Outline: as §1

[5] = Class 2, BRAF G469A, DC50 at 50%: fitted conc. at Y=50
[6] = HCT-116, Class 2, BRAF G469A, percentage protein degraded at maximal compound effect relative to DMSO
[7] = BRAF D594G, DC50 at 50%: fitted conc. at Y=50
[8] = HCT-116, BRAF D594G, percentage protein degraded at maximal compound effect relative to DMSO
[9] = A375 (BRAF V600E), DC50 at 50%: fitted conc. at Y=50
[10] = A375 (BRAF V600E), percentage protein degraded at maximal compound effect relative to DMSO
[11] = BRAF G466V, DC50 at 50%: fitted conc. at Y=50
[12] = HCT-116, BRAF G466V, percentage protein degraded at maximal compound effect relative to DMSO
[13] = BRAF G469A (Class 2), HCT-116 BRAF−/− cells, DC50 at 50% degradation
[14] = BRAF G469A (Class 2), HCT-116 BRAF−/− cells, observed Dmax relative to DMSO control
[15] = BRAF D594G (Class 3), HCT-116 BRAF−/− cells, DC50 at 50% degradation
[16] = BRAF D594G (Class 3), HCT-116 BRAF−/− cells, observed Dmax relative to DMSO control
[17] = A375 (BRAF V600E, Class 1), DC50 at 50% degradation
[18] = A375 (BRAF V600E, Class 1), observed Dmax, % protein degraded relative to DMSO control
[19] = BRAF G466V (Class 3), HCT-116 BRAF−/− cells, DC50 at 50% degradation
[20] = BRAF G466V (Class 3), HCT-116 BRAF−/− cells, observed Dmax relative to DMSO control

T1 sequence (P15056 whole entry G469A): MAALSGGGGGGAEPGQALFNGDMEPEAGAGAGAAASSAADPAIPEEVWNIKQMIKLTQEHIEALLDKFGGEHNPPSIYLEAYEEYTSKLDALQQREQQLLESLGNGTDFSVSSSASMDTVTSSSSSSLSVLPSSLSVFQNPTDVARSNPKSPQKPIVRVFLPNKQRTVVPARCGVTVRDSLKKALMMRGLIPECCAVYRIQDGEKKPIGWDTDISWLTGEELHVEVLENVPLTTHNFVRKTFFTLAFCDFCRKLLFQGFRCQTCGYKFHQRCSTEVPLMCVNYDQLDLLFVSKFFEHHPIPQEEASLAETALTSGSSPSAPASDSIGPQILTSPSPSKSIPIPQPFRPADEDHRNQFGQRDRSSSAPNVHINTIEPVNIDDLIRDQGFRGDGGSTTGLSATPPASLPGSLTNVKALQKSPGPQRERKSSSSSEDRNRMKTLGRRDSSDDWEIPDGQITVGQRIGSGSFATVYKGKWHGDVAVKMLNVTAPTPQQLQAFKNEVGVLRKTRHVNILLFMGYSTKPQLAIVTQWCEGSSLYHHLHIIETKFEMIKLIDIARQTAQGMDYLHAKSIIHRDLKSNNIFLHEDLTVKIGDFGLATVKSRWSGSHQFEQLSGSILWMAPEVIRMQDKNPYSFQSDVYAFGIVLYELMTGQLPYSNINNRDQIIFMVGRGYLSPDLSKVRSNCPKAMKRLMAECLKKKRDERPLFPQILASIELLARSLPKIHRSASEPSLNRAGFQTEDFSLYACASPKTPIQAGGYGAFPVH
T4 sequence (P15056 whole entry G466V): as the sequence (P15056 whole entry G469A) above, with G466V, A469G counted along it
T3 sequence (P15056 whole entry V600E, the tested form may be a part): as the sequence (P15056 whole entry G469A) above, with A469G, V600E counted along it
T2 sequence (P15056 whole entry D594G): as the sequence (P15056 whole entry G469A) above, with A469G, D594G counted along it

Row | DC50 [1, 5] | Dmax [1, 6] | DC50 [2, 7] | Dmax [2, 8] | DC50 [3, 9] | Dmax [3, 10] | DC50 [4, 11] | Dmax [4, 12] | DC50 [1, 13] | Dmax [1, 14] | DC50 [2, 15] | Dmax [2, 16] | DC50 [3, 17] | Dmax [3, 18] | DC50 [4, 19] | Dmax [4, 20] | SMILES
1 | – | – | – | – | – | – | – | – | < 10 nM | 30 to 70% | < 10 nM | 30 to 70% | < 10 nM | > 70% | < 10 nM | > 70% | O=C1CC[C@H](c2ccc(N3CCC(CN4CCN(c5ccc(-n6cc(-c7cc(Cl)cc(NS(=O)(=O)N8CC(F)C8)c7F)c(-c7ccncc7)n6)cc5)CC4)CC3)cc2)C(=O)N1 [Compound 333, N-{5-chloro-3-[1-(4-{4-[(1-{4-[(3R)-2,6-dioxopiperidin-3-yl]phenyl}piperidin-4-yl)methyl]piperazin-1-yl}phenyl)-3-(pyridin-4-yl)-1H-pyrazol-4-yl]-2-fluorophenyl}-3-fluoroazetidine-1-sulfonamide]
2 | – | – | – | – | – | – | – | – | < 10 nM | > 70% | < 10 nM | > 70% | < 10 nM | > 70% | < 10 nM | > 70% | O=C1CC[C@H](c2ccc(N3CCC(CN4CCN(c5ccc(-n6cc(-c7cc(Cl)cc(NS(=O)(=O)N8CC[C@@H](F)C8)c7F)c(-c7ccncc7)n6)nc5)CC4)CC3)nc2)C(=O)N1 [Compound 297, (3R)—N-{5-chloro-3-[1-(5-{4-[(1-{5-[(3R)-2,6-dioxopiperidin-3-yl]pyridin-2-yl}piperidin-4-yl)methyl]piperazin-1-yl}pyridin-2-yl)-3-(pyridin-4-yl)-1H-pyrazol-4-yl]-2-fluorophenyl}-3-fluoropyrrolidine-1-sulfonamide]

The remaining lines, values behind:

Row | SMILES | DC50 [1, 5] | Dmax [1, 6] | DC50 [2, 7] | Dmax [2, 8] | DC50 [3, 9] | Dmax [3, 10] | DC50 [4, 11] | Dmax [4, 12] | DC50 [1, 13] | Dmax [1, 14] | DC50 [2, 15] | Dmax [2, 16] | DC50 [3, 17] | Dmax [3, 18] | DC50 [4, 19] | Dmax [4, 20]
3 | CCCS(=O)(=O)Nc1cccc(-c2nc(C(C)(C)C)sc2-c2ccnc(Nc3ccc(N4CCN(C(=O)C5CCN(c6ccc(C7CCC(=O)NC7=O)cc6)CC5)CC4)c(F)c3)n2)c1F (racemic) [Compound 65, Rac-N-(3-{2-tert-butyl-5-[2-({4-[4-(1-{4-[(3R)-2,6-dioxopiperidin-3-yl]phenyl}piperidine-4-carbonyl)piperazin-1-yl]-3-fluorophenyl}amino)pyrimidin-4-yl]-1,3-thiazol-4-yl}-2-fluorophenyl)propane-1-sulfonamide] | > 500 nM | 30 to 70% | > 500 nM | 30 to 70% | < 10 nM | > 70% | > 500 nM | 30 to 70% | – | – | – | – | – | – | – | –
4 | CCN(C)S(=O)(=O)Nc1cccc(-c2nc(C(C)(C)C)sc2-c2ccnc(Nc3ccc(N4CCN(C(=O)C5CCN(c6ccc(C7CCC(=O)NC7=O)cn6)CC5)CC4)cn3)n2)c1F (racemic) [Compound 56, Rac-(3R)-3-[6-(4-{4-[6-({4-[2-tert-butyl-4-(3-{[ethyl(methyl)sulfamoyl]amino}-2-fluorophenyl)-1,3-thiazol-5-yl]pyrimidin-2-yl}amino)pyridin-3-yl]piperazine-1-carbonyl}piperidin-1-yl)pyridin-3-yl]piperidine-2,6-dione] | 10 to 50 nM | 30 to 70% | < 10 nM | 30 to 70% | < 10 nM | > 70% | < 10 nM | 30 to 70% | – | – | – | – | – | – | – | –
5 | CCN(C)S(=O)(=O)Nc1cccc(-c2nc(C)sc2-c2ccnc(Nc3ccc(N4CCN(CC5(F)CCN(c6ccc(C7CCC(=O)NC7=O)cc6)CC5)CC4)cn3)n2)c1F (racemic) [Compound 33, Rac-(3S)-3-{4-[4-({4-[6-({4-[4-(3-{[ethyl(methyl)sulfamoyl]amino}-2-fluorophenyl)-2-methyl-1,3-thiazol-5-yl]pyrimidin-2-yl}amino)pyridin-3-yl]piperazin-1-yl}methyl)-4-fluoropiperidin-1-yl]phenyl}piperidine-2,6-dione] | < 10 nM | 30 to 70% | 10 to 50 nM | 30 to 70% | 10 to 50 nM | > 70% | < 10 nM | 30 to 70% | – | – | – | – | – | – | – | –
